For this experiment, the target named is T1, human 5HT2c receptor (VSV isoform) (Homo sapiens, UniProt P28335, I156V/I160V/N158S).
T1 construct: expressed in transfected cells; host or cells: HEK 293 EBNA, stably transfected
T1 sequence (P28335 33-458 I156V/N158S/I160V): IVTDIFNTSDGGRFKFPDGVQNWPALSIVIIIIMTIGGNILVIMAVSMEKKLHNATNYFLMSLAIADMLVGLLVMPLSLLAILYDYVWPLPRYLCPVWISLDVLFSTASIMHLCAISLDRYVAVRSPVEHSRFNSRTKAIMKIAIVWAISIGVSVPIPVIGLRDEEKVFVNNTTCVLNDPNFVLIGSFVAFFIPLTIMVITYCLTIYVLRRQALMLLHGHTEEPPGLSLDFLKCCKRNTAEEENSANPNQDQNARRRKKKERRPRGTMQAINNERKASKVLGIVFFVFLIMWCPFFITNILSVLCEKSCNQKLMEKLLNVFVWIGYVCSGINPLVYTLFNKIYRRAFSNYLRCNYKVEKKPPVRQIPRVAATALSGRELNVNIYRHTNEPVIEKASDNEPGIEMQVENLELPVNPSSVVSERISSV
Nature of the experiment: cell-based.
Broadly, the EC50 is the concentration that produces a half-maximal response. As to `CCn1ccc2sc3c(c21)CCNCC3` [Example 1, 3,4,5,6,7,8-Hexahydro-9-thia-3,6-diaza-cyclopenta[a]alazulene], the half-maximal effective concentration (EC50) was < 10 nM.

As to `c1ccc(Cn2ccc3sc4c(c32)CCNCC4)cc1` [Example 4, 3-Benzyl-3,4,5,6,7,8-hexahydro-9-thia-3,6-diaza-cyclopenta[a]azulene], the EC50 is < 10 nM.

In the case of `Clc1ccc(-n2ccc3sc4c(c32)CCNCC4)cc1` [Example 5, 3-(4-Chloro-phenyl)-3,4,5,6,7,8-hexahydro-9-thia-3,6-diaza-cyclopenta[a]azulene], the EC50 was < 1000 nM.

Turning to `Cc1ccccc1Cn1ccc2sc3c(c21)CCNCC3` [Example 6, 3-(2-Methyl-benzyl)-3,4,5,6,7,8-hexahydro-9-thia-3,6-diaza-cyclopenta[a]azulene], the EC50 was < 10 nM.

As to `Cc1cccc(Cn2ccc3sc4c(c32)CCNCC4)c1` [Example 7, 3-(3-Methyl-benzyl)-3,4,5,6,7,8-hexahydro-9-thia-3,6-diaza-cyclopenta[a]azulene], the EC50 was < 10 nM.

Regarding `Cc1ccc(Cn2ccc3sc4c(c32)CCNCC4)cc1` [Example 8, 3-(4-Methyl-benzyl)-3,4,5,6,7,8-hexahydro-9-thia-3,6-diaza-cyclopenta[a]azulene], the EC50 was < 10 nM.

On to `Clc1cccc(Cn2ccc3sc4c(c32)CCNCC4)c1` [Example 10], for which the EC50 is < 10 nM.

For the compound `Clc1ccc(Cn2ccc3sc4c(c32)CCNCC4)cc1` [Example 11], the EC50 is < 10 nM.

As to `Cc1ccc(-n2ccc3sc4c(c32)CCNCC4)cc1` [Example 13, 3-p-Tolyl-3,4,5,6,7,8-hexahydro-9-thia-3,6-diaza-cyclopenta[a]azulene], the EC50 was < 100 nM.

On to `COc1ccc(-n2ccc3sc4c(c32)CCNCC4)cc1` [Example 14, 3-(4-Methoxy-phenyl)-3,4,5,6,7,8-hexahydro-9-thia-3,6-diaza-cyclopenta[a]azulene], for which the EC50 is < 100 nM.

Consider `Cc1cccc(-n2ccc3sc4c(c32)CCNCC4)c1` [Example 15, 3-m-Tolyl-3,4,5,6,7,8-hexahydro-9-thia-3,6-diaza-cyclopenta[a]azulene], for which the EC50 is < 100 nM.

On to `COc1cccc(-n2ccc3sc4c(c32)CCNCC4)c1` [Example 16, 3-(3-Methoxy-phenyl)-3,4,5,6,7,8-hexahydro-9-thia-3,6-diaza-cyclopenta[a]azulene], for which the EC50 was < 1000 nM.

For the compound `Clc1cccc(-n2ccc3sc4c(c32)CCNCC4)c1` [Example 17, 3-(3-Chloro-phenyl)-3,4,5,6,7,8-hexahydro-9-thia-3,6-diaza-cyclopenta[a]azulene], the EC50 is < 100 nM.

In the case of `COc1cccc(Cn2ccc3sc4c(c32)CCNCC4)c1` [Example 18, 3-(3-Methoxy-benzyl)-3,4,5,6,7,8-hexahydro-9-thia-3,6-diaza-cyclopenta[a]azulene], the EC50 was < 10 nM.

Take `COc1ccc(Cn2ccc3sc4c(c32)CCNCC4)cc1` [Example 19, 3-(4-Methoxy-benzyl)-3,4,5,6,7,8-hexahydro-9-thia-3,6-diaza-cyclopenta[a]azulene]: the EC50 is < 100 nM.

`c1cn(CC2CCCCC2)c2c3c(sc12)CCNCC3` [Example 20, 3-Cyclohexylmethyl-3,4,5,6,7,8-hexahydro-9-thia-3,6-diaza-cyclopenta[a]azulene]: the EC50 was < 100 nM.

As for `c1ccc2c(Cn3ccc4sc5c(c43)CCNCC5)cccc2c1` [Example 21, 3-Naphthalen-1-ylmethyl-3,4,5,6,7,8-hexahydro-9-thia-3,6-diaza-cyclopenta[a]azulene], the EC50 is < 10 nM.

`Clc1cccc(Cn2ccc3sc4c(c32)CCNCC4)c1Cl` [Example 22, 3-(2,3-Dichloro-benzyl)-3,4,5,6,7,8-hexahydro-9-thia-3,6-diaza-cyclopenta[a]azulene]: the EC50 is < 10 nM.

Turning to `Clc1ccc(Cn2ccc3sc4c(c32)CCNCC4)cc1Cl` [Example 23, 3-(3,4-Dichloro-benzyl)-3,4,5,6,7,8-hexahydro-9-thia-3,6-diaza-cyclopenta[a]azulene], the EC50 was < 10 nM.

Turning to `c1cnc2c(Cn3ccc4sc5c(c43)CCNCC5)cccc2c1` [Example 24, 3-Quinolin-8-ylmethyl-3,4,5,6,7,8-hexahydro-9-thia-3,6-diaza-cyclopenta[a]azulene], the EC50 is < 100 nM.

With `c1cc(Cn2ccc3sc4c(c32)CCNCC4)c2ccncc2c1` [Example 25, 3-Isoquinolin-5-ylmethyl-3,4,5,6,7,8-hexahydro-9-thia-3,6-diaza-cyclopenta[a]azulene], the EC50 was < 10 nM.

As for `c1ccc2c(Cn3ccc4sc5c(c43)CCNCC5)nccc2c1` [Example 26, 3-Isoquinolin-1-ylmethyl-3,4,5,6,7,8-hexahydro-9-thia-3,6-diaza-cyclopenta[a]azulene], the EC50 is < 10 nM.

The values above are taken from US9309262B2 (ABT Holding Company, priority 2013, dated 2016).
